Results from ChEMBL document CHEMBL5212743, “Selectivity Literature for EUbOPEN Chemogenomics Library wave 3” (2023).
pIC50, pKi: −log10 of the molar value.

Assays:
[1] = biological target: T1, Gamma-aminobutyric acid receptor subunit alpha-1 (Homo sapiens, UniProt P14867); assay: Selectivity interaction (GPCR panel (PDSP screen)) EUB0000587a GABRA1
T1 sequence (P14867 whole entry): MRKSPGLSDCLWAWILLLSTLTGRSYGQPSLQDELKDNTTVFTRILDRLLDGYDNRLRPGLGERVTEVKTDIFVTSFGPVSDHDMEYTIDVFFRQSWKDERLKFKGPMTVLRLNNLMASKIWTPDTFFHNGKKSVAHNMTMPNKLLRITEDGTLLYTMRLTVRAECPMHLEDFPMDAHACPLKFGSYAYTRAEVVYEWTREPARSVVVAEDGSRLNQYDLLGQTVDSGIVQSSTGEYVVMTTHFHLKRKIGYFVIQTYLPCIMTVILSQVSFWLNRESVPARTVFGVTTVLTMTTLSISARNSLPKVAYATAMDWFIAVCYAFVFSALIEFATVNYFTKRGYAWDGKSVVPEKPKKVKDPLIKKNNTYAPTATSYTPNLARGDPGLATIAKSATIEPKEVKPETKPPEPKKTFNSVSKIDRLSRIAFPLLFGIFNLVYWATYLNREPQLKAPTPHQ

[2] = biological target: T1, Gamma-aminobutyric acid receptor subunit alpha-1; assay: Selectivity interaction (GPCR panel (PDSP screen)) EUB0000548a GABRA1
[3] = biological target: T2, Myosin-IIIb (Homo sapiens) (UniProt Q8WXR4); assay: Selectivity interaction (KinomeScan (DiscoverX)) EUB0000548a MYO3B; conditions: at 1 µM
T2 sequence (whole entry): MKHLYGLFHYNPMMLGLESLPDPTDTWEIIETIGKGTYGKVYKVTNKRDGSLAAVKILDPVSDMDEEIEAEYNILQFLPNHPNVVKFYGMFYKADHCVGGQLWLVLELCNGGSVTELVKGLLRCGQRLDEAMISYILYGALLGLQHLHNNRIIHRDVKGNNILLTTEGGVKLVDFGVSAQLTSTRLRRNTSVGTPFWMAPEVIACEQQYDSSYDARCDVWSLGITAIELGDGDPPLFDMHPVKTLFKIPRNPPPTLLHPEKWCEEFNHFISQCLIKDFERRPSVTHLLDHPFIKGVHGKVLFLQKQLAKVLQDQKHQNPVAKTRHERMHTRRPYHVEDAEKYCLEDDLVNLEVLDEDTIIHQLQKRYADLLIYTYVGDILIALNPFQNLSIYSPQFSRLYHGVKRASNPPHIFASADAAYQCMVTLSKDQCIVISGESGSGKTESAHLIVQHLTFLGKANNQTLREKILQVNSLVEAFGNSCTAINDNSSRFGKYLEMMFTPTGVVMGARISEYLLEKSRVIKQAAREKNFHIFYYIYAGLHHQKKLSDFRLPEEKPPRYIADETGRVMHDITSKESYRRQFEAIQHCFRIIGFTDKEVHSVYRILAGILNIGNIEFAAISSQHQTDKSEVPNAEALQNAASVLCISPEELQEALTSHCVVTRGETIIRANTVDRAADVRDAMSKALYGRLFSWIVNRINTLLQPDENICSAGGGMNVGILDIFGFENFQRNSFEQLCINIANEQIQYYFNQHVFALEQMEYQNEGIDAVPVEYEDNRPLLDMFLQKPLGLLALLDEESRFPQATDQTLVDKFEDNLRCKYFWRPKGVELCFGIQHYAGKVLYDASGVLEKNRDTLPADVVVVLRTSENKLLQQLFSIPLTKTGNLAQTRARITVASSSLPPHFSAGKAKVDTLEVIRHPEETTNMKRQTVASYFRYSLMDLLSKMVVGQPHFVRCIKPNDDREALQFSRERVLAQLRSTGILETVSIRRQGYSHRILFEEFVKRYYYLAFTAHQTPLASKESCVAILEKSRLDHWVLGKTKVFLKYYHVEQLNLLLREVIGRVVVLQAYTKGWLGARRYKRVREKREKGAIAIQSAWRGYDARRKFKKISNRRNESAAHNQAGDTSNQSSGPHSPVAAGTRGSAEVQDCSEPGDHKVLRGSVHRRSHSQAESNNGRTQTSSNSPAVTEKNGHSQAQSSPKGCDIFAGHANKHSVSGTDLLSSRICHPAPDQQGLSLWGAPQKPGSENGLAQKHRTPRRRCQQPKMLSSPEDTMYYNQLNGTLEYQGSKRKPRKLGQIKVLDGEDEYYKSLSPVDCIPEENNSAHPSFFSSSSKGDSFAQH

[4] = biological target: Receptor-type tyrosine-protein kinase FLT3 (Homo sapiens) (UniProt P36888); assay: Selectivity interaction (KinomeScan (DiscoverX)) EUB0000548a FLT3; conditions: at 1 µM
[5] = biological target: T1, Gamma-aminobutyric acid receptor subunit alpha-1; assay: Selectivity interaction (GPCR panel (PDSP screen)) EUB0000302b GABRA1
[6] = biological target: Tyrosine-protein kinase Fyn (Homo sapiens, UniProt P06241); assay: Selectivity interaction (Kinase panel (HTRF assay)) EUB0000221b FYN
[7] = biological target: Histone-lysine N-methyltransferase SMYD3 (Homo sapiens) (UniProt Q9H7B4); assay: Selectivity interaction (Methyltransferase panel) EUB0000221b SMYD3; conditions: at 10 µM
Histone-lysine N-methyltransferase SMYD3 (Homo sapiens), sequence (Q9H7B4 whole entry): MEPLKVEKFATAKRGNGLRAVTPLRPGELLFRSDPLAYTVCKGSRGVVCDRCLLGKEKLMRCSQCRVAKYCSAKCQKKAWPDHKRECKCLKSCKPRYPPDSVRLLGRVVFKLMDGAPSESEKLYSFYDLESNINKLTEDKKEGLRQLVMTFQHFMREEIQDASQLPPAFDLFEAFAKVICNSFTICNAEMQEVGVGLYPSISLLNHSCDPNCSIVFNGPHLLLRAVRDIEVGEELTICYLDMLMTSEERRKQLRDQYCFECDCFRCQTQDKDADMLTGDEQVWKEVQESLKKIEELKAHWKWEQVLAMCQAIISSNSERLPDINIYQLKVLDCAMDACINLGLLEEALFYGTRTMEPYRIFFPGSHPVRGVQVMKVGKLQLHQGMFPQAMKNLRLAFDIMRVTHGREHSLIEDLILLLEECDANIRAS

Receptor-type tyrosine-protein kinase FLT3 (Homo sapiens), sequence (P36888 whole entry): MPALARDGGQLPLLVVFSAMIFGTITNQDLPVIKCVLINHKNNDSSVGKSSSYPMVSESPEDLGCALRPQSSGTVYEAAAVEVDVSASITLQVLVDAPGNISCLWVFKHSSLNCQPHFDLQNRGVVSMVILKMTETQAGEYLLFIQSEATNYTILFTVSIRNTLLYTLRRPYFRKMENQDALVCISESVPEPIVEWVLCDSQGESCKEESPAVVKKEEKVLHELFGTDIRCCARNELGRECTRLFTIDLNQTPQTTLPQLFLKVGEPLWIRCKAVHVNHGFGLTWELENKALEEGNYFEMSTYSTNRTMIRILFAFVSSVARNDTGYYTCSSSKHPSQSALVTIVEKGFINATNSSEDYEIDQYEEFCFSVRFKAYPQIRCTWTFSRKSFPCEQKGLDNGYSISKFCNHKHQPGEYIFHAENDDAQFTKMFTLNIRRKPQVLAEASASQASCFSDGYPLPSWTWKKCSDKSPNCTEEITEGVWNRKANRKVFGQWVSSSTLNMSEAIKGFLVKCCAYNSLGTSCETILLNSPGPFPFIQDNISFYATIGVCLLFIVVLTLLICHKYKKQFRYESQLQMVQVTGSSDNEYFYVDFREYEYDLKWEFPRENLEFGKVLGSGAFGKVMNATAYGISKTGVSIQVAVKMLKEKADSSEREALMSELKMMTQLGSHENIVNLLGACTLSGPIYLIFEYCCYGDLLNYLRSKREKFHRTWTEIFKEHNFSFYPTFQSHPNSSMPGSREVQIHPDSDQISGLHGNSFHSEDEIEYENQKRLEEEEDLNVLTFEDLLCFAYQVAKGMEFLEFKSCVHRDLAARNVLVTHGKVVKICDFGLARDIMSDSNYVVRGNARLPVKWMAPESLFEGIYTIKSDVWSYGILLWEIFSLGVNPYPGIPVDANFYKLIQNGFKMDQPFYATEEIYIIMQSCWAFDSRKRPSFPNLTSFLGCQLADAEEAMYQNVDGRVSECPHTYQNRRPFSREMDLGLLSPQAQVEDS
Tyrosine-protein kinase Fyn, sequence (P06241 whole entry): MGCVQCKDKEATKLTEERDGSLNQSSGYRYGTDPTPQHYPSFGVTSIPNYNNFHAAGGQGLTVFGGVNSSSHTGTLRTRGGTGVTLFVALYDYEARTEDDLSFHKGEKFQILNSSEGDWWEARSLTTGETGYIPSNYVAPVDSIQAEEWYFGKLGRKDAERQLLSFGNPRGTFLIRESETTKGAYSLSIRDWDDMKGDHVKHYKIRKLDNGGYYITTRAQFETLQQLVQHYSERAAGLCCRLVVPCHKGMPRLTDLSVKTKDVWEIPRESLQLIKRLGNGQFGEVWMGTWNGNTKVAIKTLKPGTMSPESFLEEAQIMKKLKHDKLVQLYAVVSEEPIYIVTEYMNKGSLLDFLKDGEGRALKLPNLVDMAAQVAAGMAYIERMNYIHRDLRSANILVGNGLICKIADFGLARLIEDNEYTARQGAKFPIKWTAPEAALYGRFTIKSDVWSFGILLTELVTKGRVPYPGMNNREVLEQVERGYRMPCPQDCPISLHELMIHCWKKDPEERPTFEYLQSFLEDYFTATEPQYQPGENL

## CCNC(=O)c1cc2c(N3CCOC[C@@H]3C)ccnc2n1C
[1]
  pKi: 6.65

## NS(=O)(=O)c1cc(NC(=O)C2(c3ccccc3Cl)CC2)ccc1Oc1cccc(Cl)c1 [BAY-207]
[2]
  pKi: 6.60
[3]
  % of control: 29%
[4]
  % of control: 32%

## CCNC(=O)c1cc2c(N3CCOC[C@@H]3C)ccnc2[nH]1
[5]
  pKi: 5.82

## C[C@H]1CC(=O)Nc2cc(C(=O)NCCC3CC3)ccc2N1C(=O)N1CC2CC2C1 (some centres not stated)
[6]
  pIC50: 5.24
[7]
  % of activity remaining: 40%
